In ChEMBL document CHEMBL6134902, “Novel tacrine-based multi-target directed Ligands: Enhancing cholinesterase inhibition, NMDA receptor antagonism, and CNS bioavailability for Alzheimer's disease treatment” (Eur J Med Chem, 2025):

Tests used:
[1] = Lipophilicity, LogD of compound at pH 2.6 by chromatography; format: physicochemical; conditions: buffer
[2] = Lipophilicity, LogD of compound at pH 10.5 by chromatography; format: physicochemical; conditions: buffer
[3] = Lipophilicity, LogD of compound at pH 7.4 by chromatography; format: physicochemical; conditions: buffer
[4] = human, microsomes, 0.75 h, 3 µM
in vitro [5] = conditions: human, liver microsomes
in vitro [6] = conditions: human, liver microsomes; remark: listed apart in the source
[7] = Cmax in brain of male Balb/c mouse at 15 mg/kg, ip measured up to 120 mins; format: ADME, organism-based
[8] = Cmax in plasma of male Balb/c mouse at 15 mg/kg, ip measured up to 120 mins; format: ADME, organism-based
[9] = AUC (infinity) in plasma of male Balb/c mouse at 15 mg/kg, ip measured up to 120 mins; format: ADME, organism-based
[10] = Tmax in brain of male Balb/c mouse at 15 mg/kg, ip measured up to 120 mins; format: ADME, organism-based
[11] = Drug uptake in plasma of male BALB/c mouse at 15 mg/kg, ip measured after 48 hrs; format: ADME, organism-based; conditions: in vivo
[12] = AUC (0 to 120 mins) in brain of male Balb/c mouse at 15 mg/kg, ip measured up to 120 mins; format: ADME, organism-based
in vivo = conditions: male, Balb/c, mouse, brain/plasma, ip, 15 mg/kg
[13] = Drug uptake in brain of male BALB/c mouse at 15 mg/kg, ip measured after 48 hrs; format: ADME, organism-based; conditions: in vivo
[14] = Tmax in plasma of male Balb/c mouse at 15 mg/kg, ip measured up to 120 mins; format: ADME, organism-based
[15] = AUC (0 to 120 mins) in plasma of male Balb/c mouse at 15 mg/kg, ip measured up to 120 mins; format: ADME, organism-based
[16] = Toxicity in male BALB/c mouse administered intraperitoneally measured for 48 hrs; conditions: in vivo, route ip
[17] = AUC (infinity) in brain of male Balb/c mouse at 15 mg/kg, ip measured up to 120 mins; format: ADME, organism-based

SMILES | CHI | chromatographic logD [1] | chromatographic logD [2] | chromatographic logD [3] | Drug metabolism [4] | microsomal CLint at 0.75 h, 3 µM (in vitro [5]) [µL/min/mg] | half-life at 0.75 h, 3 µM (in vitro [6]) [min] | also measured
CC(C)COc1cccc(-c2ccc3nc4c(c(N)c3c2)CCCC4)c1 | 38.8 | 2.87 | 5.79 | 5.58 | – | – | – | –
Nc1c2c(nc3ccc(-c4ccsc4)cc13)CCCC2 | 29.9 | 1.78 | 4.48 | 3.8 | – | – | – | –
COc1cc(-c2ccc3nc4c(c(N)c3c2)CCCC4)ccn1 | 25.3 | 1.63 | 3.99 | 3.69 | – | – | – | –
Nc1c2c(nc3ccc(-c4cncnc4)cc13)CCCC2 | 14.7 | 0.99 | 2.59 | 2.73 | 200.7 10^6No_unit | 14.8 | 93.7 | –
CN(C)c1cccc(-c2ccc3nc4c(c(N)c3c2)CCCC4)c1 | 31.6 | 1.4 | 4.86 | 4.5 | – | – | – | –
Nc1c2c(nc3ccc(-c4ccc(F)nc4)cc13)CCCC2 | 23 | 1.44 | 3.81 | 3.24 | – | – | – | –
COc1ccc2nc3c(c(N)c2c1)CCCC3 | – | – | – | – | 13.2 10^6No_unit | 42.2 | 32.8 | –
Nc1c2c(nc3ccc(-c4ccc(Cl)nc4)cc13)CCCC2 | 26 | 1.6 | 4.15 | 3.65 | – | – | – | –
Nc1c2c(nc3ccc(-c4cccs4)cc13)CCCC2 | 29.6 | 1.77 | 4.54 | 3.85 | – | – | – | –
Nc1c2c(nc3ccc(-c4ccncc4)cc13)CCCC2 | 20.2 | 0.47 | 3.05 | 3.52 | 172.8 10^6No_unit | 46.2 | 30 | –
Nc1c2c(nc3ccc(Oc4ccccc4)cc13)CCCC2 | 27.6 | 1.83 | 4.49 | 3.82 | 473.1 10^6No_unit | 4.2 | 330 | –
COc1ncc(-c2ccc3nc4c(c(N)c3c2)CCCC4)c(OC)n1 | 12.2 | 0.65 | 1.4 | 1.2 | – | – | – | –
COc1ncc(-c2ccc3nc4c(c(N)c3c2)CCCC4)cn1 | 19.1 | 1.26 | 3.2 | 2.94 | – | – | – | –
Cc1ccc(-c2ccc3nc4c(c(N)c3c2)CCCC4)o1 | 29.5 | 1.94 | 4.58 | 4.06 | 215.5 10^6No_unit | 239 | 5.8 | –
Nc1c2c(nc3ccc(-c4ccc(Cl)s4)cc13)CCCC2 | 37.9 | 2.28 | 5.42 | 4.86 | – | – | – | –
Cc1csc(-c2ccc3nc4c(c(N)c3c2)CCCC4)c1 | 33 | 2.12 | 4.96 | 4.41 | 207 10^6No_unit | 224 | 6.2 | Cmax [7]: 1470 nM; Cmax [8]: 945 nM; AUC(0-inf) [9]: 1.08 µM·h; Tmax [10]: 26.2 min; Drug uptake [11]: Active; AUC(0-t) at 2 h [12]: 1.83 µM·h; Kp at 2 h (in vivo): 2.36; Drug uptake [13]: Active; Tmax [14]: 15 min; AUC(0-t) at 2 h [15]: 0.775 µM·h; NOAEL at 48 h [16]: 15 mg/kg; AUC(0-inf) [17]: 1.96 µM·h
Nc1c2c(nc3ccc(-c4ccoc4)cc13)CCCC2 | 26.2 | 1.59 | 4.08 | 3.43 | – | – | – | –
